The record followed here is patent US8138360B2, “Isotopically-labeled benzofuran compounds as imaging agents for amyloidogenic proteins” (University of Pittsburgh—of the Commonwealth System of …, priority 2005, dated 2012).

A word on the Ki: it is a dissociation constant, usually derived from enzyme kinetics or from competition with a known ligand. A low value points to tighter binding.

Data set [1] can be described thus: Baboon brain entry study (PET). Format: in vivo. The conditions noted are these: 40 kg baboon, 8 mCi intravenously, PET imaging over 2 h post injection. The procedure:
A 40 kg baboon was anesthetized, immobilized, and placed on a ventilator. The baboon was positioned in a PET scanner to image the brain, and a transmission scan was performed to correct for attenuation. The baboon was injected intravenously with a solution containing 8 mCi of 5-Methoxy-2-(4′-fluorophenyl)benzofuran, and the brain was imaged in a series of increasing data collection time bins over 2 h post injection. Following data acquisition, the images were reconstructed and regions of interest were drawn. Decay and […] corrected time-activity curves (TAC) were generated for each of the regions to determine the quantitative time course of radioactivity in each brain region.

Another data set addresses T1, synthetic Aβ(1-40) (Homo sapiens, UniProt P05067).
T1 construct: host or cells: chemically synthesised peptide
The data set can be described thus: Competition of [3H]BTA-1 binding from synthetic Aβ(1-40). Particulars: for Ki: inhibition constant for competition of [3H]BTA-1 binding from synthetic Aβ(1-40), phosphate-buffered saline pH 7.4. As for the experimental part: The characteristics of benzofuran derivative binding were analyzed using synthetic Aβ(1-40) and 2-(4′-[^3H]methylamino-phenyl)-benzothiazole ([^3H]BTA-1) in phosphate-buffered saline (pH 7.4) as previously described. Klunk et al., Life Sci. 69:1471 (2001); Mathis et al., Bioorg. Med. Chem. Lett., 12:295 (2002).
The characteristics of benzofuran derivative binding were analyzed using synthetic Aβ(1-40) and 2-(4′-[^3H]methylamino-phenyl)-benzothiazole ([^3H]BTA-1) in phosphate-buffered saline (pH 7.4), as previously described. Klunk et al., Life Sci. 69:1471 (2001); Mathis et al., Bioorg. Med. Chem. Lett., 12:295 (2002). The table below lists the inhibition constants (Ki) of the four compounds shown for competition of [^3H]BTA-1 binding from synthetic Aβ(1-40).

Structures are written as SMILES.

T1 sequence (P05067 672-711): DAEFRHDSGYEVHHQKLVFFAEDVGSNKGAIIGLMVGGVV

As to `COc1ccc2oc(-c3ccc(F)cc3)cc2c1` [5-Methoxy-2-(4′-fluorophenyl)benzofuran], in data set [1], the “brain penetration of the radiotracer (time-activity curves)” value was “excellent brain penetration” and the “clearance of radioactivity from normal baboon brain (time-activity curves)” value was “rapid clearance”. The “affinity of the ligand in vitro for aggregated amyloid” value on synthetic Aβ(1-40) (in vitro, in words) is “relatively high affinity”.
As for `CN(C)c1ccc2oc(-c3ccc(F)cc3)cc2c1`, the affinity on synthetic Aβ(1-40) corresponds to a Ki of 2 nM.
Still for that read-out and setting: with `CNc1ccc2oc(-c3ccc(F)cc3)cc2c1` the figure was 2.8 nM; with `COc1ccc2oc(-c3ccc(F)cc3)cc2c1` [drawing 23], 3.7 nM.
On the same count and under the same terms, with `Oc1ccc2oc(-c3ccc(F)cc3)cc2c1` the figure was 27.7 nM.
The same measure, in the same setting: then `Nc1ccc2oc(-c3ccc(F)cc3)cc2c1`, with 28 nM; and `Oc1ccc2cc(-c3ccc(F)cc3)oc2c1`, with 96 nM.
For `Oc1ccc2oc(-c3ccc(OCCCF)cc3)cc2c1`, at synthetic Aβ(1-40), affinity was put at a Ki of 1.2 nM.
Same read-out and setting: then `COc1ccc2cc(-c3ccc(F)cc3)oc2c1`, with 3.9 nM.
